Results: ChEMBL document CHEMBL1687747, “Effect of mild and moderate liver disease on the pharmacokinetics of isavuconazole after intravenous and oral administration of a single dose of the prodrug BAL8557” (Antimicrob Agents Chemother, 2009)

What was measured:
Details in all cases: in vivo
Homo sapiens [1] = experiment: Toxicity in of human with mild liver impairment at 180.5 mg, iv administered as single dose over 2 hrs following overnight fasting; format: organism-based
Homo sapiens [2] = experiment: Systemic clearance in plasma of human with mild liver impairment assessed as isavuconazole level at 180.5 mg, iv administered as single dose over 2 hrs following overnight fasting by high-pressure liquid chromatography coupled with tandem mass spectrometry; format: ADME, organism-based
Homo sapiens [3] = experiment: AUC (0 to t) in human with moderate liver impairment at 180.5 mg, iv administered as single dose over 2 hrs following overnight fasting by high-pressure liquid chromatography coupled with tandem mass spectrometry; format: ADME, organism-based; design: dose 180.5 mg, time < 2 hr, route intravenous
Homo sapiens [4] = experiment: AUC (0 to infinity) in healthy human plasma assessed as isavuconazole level at 180.5 mg, iv administered as single dose over 2 hrs following overnight fasting by high-pressure liquid chromatography coupled with tandem mass spectrometry; format: ADME, organism-based; design: dose 180.5 mg, time infinity, route intravenous
Homo sapiens [5] = experiment: Cmax in plasma of human with mild liver impairment assessed as isavuconazole level at 180.5 mg, iv administered as single dose over 2 hrs following overnight fasting by high-pressure liquid chromatography coupled with tandem mass spectrometry by HPLC-tandem mass spectrometry; format: ADME, organism-based; design: dose 180.5 mg, route intravenous
Homo sapiens [6] = experiment: AUC (0 to t) in healthy human assessed as metabolite BAL8728 level at 180.5 mg, iv administered as single dose over 2 hrs following overnight fasting by high-pressure liquid chromatography coupled with tandem mass spectrometry; format: ADME, organism-based, Plasma; design: dose 180.5 mg, time < 2 hr, route intravenous
Homo sapiens [7] = experiment: Volume of distribution at steady state in of human with mild liver impairment assessed as isavuconazole level at 180.5 mg, iv administered as single dose over 2 hrs following overnight fasting by high-pressure liquid chromatography coupled with tandem mass spectrometry; format: ADME, organism-based
Homo sapiens [8] = experiment: Terminal half life in healthy human assessed as isavuconazole level at 180.5 mg, po administered as single dose over 2 hrs following overnight fasting by high-pressure liquid chromatography coupled with tandem mass spectrometry; format: ADME, organism-based
Homo sapiens [9] = experiment: Oral clearance in plasma of human with moderate liver impairment assessed as isavuconazole level at 180.5 mg, po administered as single dose over 2 hrs following overnight fasting by high-pressure liquid chromatography coupled with tandem mass spectrometry; format: ADME, organism-based
Homo sapiens [10] = experiment: Terminal half life in healthy human assessed as isavuconazole level at 180.5 mg, iv administered as single dose over 2 hrs following overnight fasting by high-pressure liquid chromatography coupled with tandem mass spectrometry; format: ADME, organism-based
Homo sapiens [11] = experiment: Toxicity in healthy human at 180.5 mg, iv administered as single dose over 2 hrs following overnight fasting; format: organism-based
Homo sapiens [12] = experiment: Tmax in plasma of human with moderate liver impairment assessed as isavuconazole level at 180.5 mg, po administered as single dose over 2 hrs following overnight fasting by high-pressure liquid chromatography coupled with tandem mass spectrometry; format: ADME, organism-based
Homo sapiens [13] = experiment: Systemic clearance in healthy human plasma assessed as isavuconazole level at 180.5 mg, iv administered as single dose over 2 hrs following overnight fasting by high-pressure liquid chromatography coupled with tandem mass spectrometry; format: ADME, organism-based
Homo sapiens [14] = experiment: Terminal half life in human with mild liver impairment assessed as isavuconazole level at 180.5 mg, iv administered as single dose over 2 hrs following overnight fasting by high-pressure liquid chromatography coupled with tandem mass spectrometry; format: ADME, organism-based
Homo sapiens [15] = experiment: Cmax in plasma of human with mild liver impairment assessed as isavuconazole level at 180.5 mg, po administered as single dose over 2 hrs following overnight fasting by high-pressure liquid chromatography coupled with tandem mass spectrometry by HPLC-tandem mass spectrometry; format: ADME, organism-based; design: dose 180.5 mg, route oral
Homo sapiens [16] = experiment: Terminal half life in human with moderate liver impairment assessed as isavuconazole level at 180.5 mg, iv administered as single dose over 2 hrs following overnight fasting by high-pressure liquid chromatography coupled with tandem mass spectrometry; format: ADME, organism-based
Homo sapiens [17] = experiment: AUC (0 to infinity) in plasma of human with moderate liver impairment assessed as isavuconazole level at 180.5 mg, po administered as single dose over 2 hrs following overnight fasting by high-pressure liquid chromatography coupled with tandem mass spectrometry; format: ADME, organism-based; design: dose 180.5 mg, route oral, time infinity
Homo sapiens [18] = experiment: AUC (0 to t) in human with mild liver impairment assessed as metabolite BAL8728 level at 180.5 mg, iv administered as single dose over 2 hrs following overnight fasting by high-pressure liquid chromatography coupled with tandem mass spectrometry; format: ADME, organism-based; design: dose 180.5 mg, time < 2 hr, route intravenous
Homo sapiens [19] = experiment: AUC (0 to infinity) in plasma of human with moderate liver impairment assessed as isavuconazole level at 180.5 mg, iv administered as single dose over 2 hrs following overnight fasting by high-pressure liquid chromatography coupled with tandem mass spectrometry; format: ADME, organism-based; design: dose 180.5 mg, route intravenous, time infinity
Homo sapiens [20] = experiment: Volume of distribution at steady state in healthy human assessed as isavuconazole level at 180.5 mg, po administered as single dose over 2 hrs following overnight fasting by high-pressure liquid chromatography coupled with tandem mass spectrometry; format: ADME, organism-based
Homo sapiens [21] = experiment: Cmax in healthy human plasma assessed as isavuconazole level at 180.5 mg, iv administered as single dose over 2 hrs following overnight fasting by high-pressure liquid chromatography coupled with tandem mass spectrometry by HPLC-tandem mass spectrometry; format: ADME, organism-based; design: dose 180.5 mg, route intravenous
Homo sapiens [22] = experiment: Tmax in plasma of human with mild liver impairment assessed as isavuconazole level at 180.5 mg, po administered as single dose over 2 hrs following overnight fasting by high-pressure liquid chromatography coupled with tandem mass spectrometry; format: ADME, organism-based
Homo sapiens [23] = experiment: Toxicity in healthy human at 180.5 mg, po administered as single dose over 2 hrs following overnight fasting; format: organism-based
Homo sapiens [24] = experiment: AUC (0 to infinity) in healthy human plasma assessed as isavuconazole level at 180.5 mg, po administered as single dose over 2 hrs following overnight fasting by high-pressure liquid chromatography coupled with tandem mass spectrometry; format: ADME, organism-based; design: dose 180.5 mg, route oral, time infinity
Homo sapiens [25] = experiment: AUC (0 to infinity) in plasma of human with mild liver impairment assessed as isavuconazole level at 180.5 mg, po administered as single dose over 2 hrs following overnight fasting by high-pressure liquid chromatography coupled with tandem mass spectrometry; format: ADME, organism-based; design: dose 180.5 mg, route oral, time infinity
Homo sapiens [26] = experiment: Oral clearance in healthy human plasma assessed as isavuconazole level at 180.5 mg, po administered as single dose over 2 hrs following overnight fasting by high-pressure liquid chromatography coupled with tandem mass spectrometry; format: ADME, organism-based
Homo sapiens [27] = experiment: Toxicity in of human with moderate liver impairment at 180.5 mg, po administered as single dose over 2 hrs following overnight fasting; format: organism-based
Homo sapiens [28] = experiment: Toxicity in of human with mild liver impairment at 180.5 mg, po administered as single dose over 2 hrs following overnight fasting; format: organism-based
Homo sapiens [29] = experiment: Cmax in plasma of human with moderate liver impairment assessed as isavuconazole level at 180.5 mg, iv administered as single dose over 2 hrs following overnight fasting by high-pressure liquid chromatography coupled with tandem mass spectrometry by HPLC-tandem mass spectrometry; format: ADME, organism-based; design: dose 180.5 mg, route intravenous
Homo sapiens [30] = experiment: Terminal half life in human with mild liver impairment assessed as isavuconazole level at 180.5 mg, po administered as single dose over 2 hrs following overnight fasting by high-pressure liquid chromatography coupled with tandem mass spectrometry; format: ADME, organism-based
Homo sapiens [31] = experiment: Systemic clearance in plasma of human with moderate liver impairment assessed as isavuconazole level at 180.5 mg, iv administered as single dose over 2 hrs following overnight fasting by high-pressure liquid chromatography coupled with tandem mass spectrometry; format: ADME, organism-based
Homo sapiens [32] = experiment: Cmax in plasma of human with moderate liver impairment assessed as isavuconazole level at 180.5 mg, po administered as single dose over 2 hrs following overnight fasting by high-pressure liquid chromatography coupled with tandem mass spectrometry by HPLC-tandem mass spectrometry; format: ADME, organism-based; design: dose 180.5 mg, route oral
Homo sapiens [33] = experiment: AUC (0 to t) in human with moderate liver impairment assessed as metabolite BAL8728 level at 180.5 mg, iv administered as single dose over 2 hrs following overnight fasting by high-pressure liquid chromatography coupled with tandem mass spectrometry; format: ADME, organism-based; design: dose 180.5 mg, time < 2 hr, route intravenous
Homo sapiens [34] = experiment: Toxicity in of human with moderate liver impairment at 180.5 mg, iv administered as single dose over 2 hrs following overnight fasting; format: organism-based
Homo sapiens [35] = experiment: Volume of distribution at steady state in of human with moderate liver impairment assessed as isavuconazole level at 180.5 mg, po administered as single dose over 2 hrs following overnight fasting by high-pressure liquid chromatography coupled with tandem mass spectrometry; format: ADME, organism-based
Homo sapiens [36] = experiment: Oral clearance in plasma of human with mild liver impairment assessed as isavuconazole level at 180.5 mg, po administered as single dose over 2 hrs following overnight fasting by high-pressure liquid chromatography coupled with tandem mass spectrometry; format: ADME, organism-based
Homo sapiens [37] = experiment: AUC (0 to t) in healthy human at 180.5 mg, iv administered as single dose over 2 hrs following overnight fasting by high-pressure liquid chromatography coupled with tandem mass spectrometry; format: ADME, organism-based, Plasma; design: time < 2 hr, dose 180.5 mg, route intravenous
Homo sapiens [38] = experiment: Tmax in healthy human plasma assessed as isavuconazole level at 180.5 mg, po administered as single dose over 2 hrs following overnight fasting by high-pressure liquid chromatography coupled with tandem mass spectrometry; format: ADME, organism-based
Homo sapiens [39] = experiment: Terminal half life in human with moderate liver impairment assessed as isavuconazole level at 180.5 mg, po administered as single dose over 2 hrs following overnight fasting by high-pressure liquid chromatography coupled with tandem mass spectrometry; format: ADME, organism-based
Homo sapiens [40] = experiment: AUC (0 to t) in human with mild liver impairment at 180.5 mg, iv administered as single dose over 2 hrs following overnight fasting by high-pressure liquid chromatography coupled with tandem mass spectrometry; format: ADME, organism-based; design: time < 2 hr, dose 180.5 mg, route intravenous
Homo sapiens [41] = experiment: Cmax in healthy human plasma assessed as isavuconazole level at 180.5 mg, po administered as single dose over 2 hrs following overnight fasting by high-pressure liquid chromatography coupled with tandem mass spectrometry by HPLC-tandem mass spectrometry; format: ADME, organism-based; design: dose 180.5 mg, route oral
Homo sapiens [42] = experiment: Volume of distribution at steady state in of human with mild liver impairment assessed as isavuconazole level at 180.5 mg, po administered as single dose over 2 hrs following overnight fasting by high-pressure liquid chromatography coupled with tandem mass spectrometry; format: ADME, organism-based
Homo sapiens [43] = experiment: AUC (0 to infinity) in plasma of human with mild liver impairment assessed as isavuconazole level at 180.5 mg, iv administered as single dose over 2 hrs following overnight fasting by high-pressure liquid chromatography coupled with tandem mass spectrometry; format: ADME, organism-based; design: dose 180.5 mg, time infinity, route intravenous
Homo sapiens [44] = experiment: Volume of distribution at steady state in of human with moderate liver impairment assessed as isavuconazole level at 180.5 mg, iv administered as single dose over 2 hrs following overnight fasting by high-pressure liquid chromatography coupled with tandem mass spectrometry; format: ADME, organism-based
Homo sapiens [45] = experiment: Volume of distribution at steady state in healthy human assessed as isavuconazole level at 180.5 mg, iv administered as single dose over 2 hrs following overnight fasting by high-pressure liquid chromatography coupled with tandem mass spectrometry; format: ADME, organism-based

CL (Homo sapiens [2]): 1.93 L/h
AUC (Homo sapiens [3]): 0.433 µg/h/mL
AUC (Homo sapiens [4]): 39 µg/h/mL
Cmax (Homo sapiens [5]): 980 ng/mL
AUC (Homo sapiens [6]): 0.606 µg/h/mL
Vdss (Homo sapiens [7]): 492 L
beta t1/2 (Homo sapiens [8]): 148 h
CL (Homo sapiens [9]): 1.82 L/h
beta t1/2 (Homo sapiens [10]): 123 h
Tmax (Homo sapiens [12]): 2.6 h
CL (Homo sapiens [13]): 2.73 L/h
beta t1/2 (Homo sapiens [14]): 224 h
Cmax (Homo sapiens [15]): 730 ng/mL
beta t1/2 (Homo sapiens [16]): 302 h
AUC (Homo sapiens [17]): 62 µg/h/mL
AUC (Homo sapiens [18]): 0.685 µg/h/mL
AUC (Homo sapiens [19]): 101 µg/h/mL
Vdss (Homo sapiens [20]): 475 L
Cmax (Homo sapiens [21]): 1090 ng/mL
Tmax (Homo sapiens [22]): 2.7 h
AUC (Homo sapiens [24]): 45 µg/h/mL
AUC (Homo sapiens [25]): 98 µg/h/mL
CL (Homo sapiens [26]): 2.38 L/h
Cmax (Homo sapiens [29]): 840 ng/mL
beta t1/2 (Homo sapiens [30]): 292 h
CL (Homo sapiens [31]): 1.43 L/h
Cmax (Homo sapiens [32]): 470 ng/mL
AUC (Homo sapiens [33]): 0.583 µg/h/mL
Vdss (Homo sapiens [35]): 598 L
CL (Homo sapiens [36]): 1.26 L/h
AUC (Homo sapiens [37]): 0.195 µg/h/mL
Tmax (Homo sapiens [38]): 2.4 h
beta t1/2 (Homo sapiens [39]): 240 h
AUC (Homo sapiens [40]): 0.375 µg/h/mL
Cmax (Homo sapiens [41]): 840 ng/mL
Vdss (Homo sapiens [42]): 485 L
AUC (Homo sapiens [43]): 72 µg/h/mL
Vdss (Homo sapiens [44]): 471 L
Vdss (Homo sapiens [45]): 422 L
SMILES: CNCC(=O)OCc1cccnc1N(C)C(=O)OC(C)[n+]1cnn(C[C@](O)(c2cc(F)ccc2F)[C@@H](C)c2nc(-c3ccc(C#N)cc3)cs2)c1.Cl.[Cl-] (stereo not given in full)
Activity (Homo sapiens [1]): Non-toxic
Activity (Homo sapiens [11]): Non-toxic
Activity (Homo sapiens [23]): Non-toxic
Activity (Homo sapiens [27]): Non-toxic
Activity (Homo sapiens [28]): Non-toxic
Activity (Homo sapiens [34]): Non-toxic
